Experimental data from patent publication US8207172B2 (Bayer Intellectual Property GmbH, priority 2004, dated 2012).
Where a name gives a salt, the structure may show the parent alone.

What was measured:
[1] = test system: A431 cells (human epidermoid carcinoma); experiment: In vitro tumor cell proliferation assay (Cell Titer-Glo luminescent cell viability), A431; type: cell-based; settings: A-431, 72 h, 72 hours of drug exposure, ATP luminescence readout, read-out: IC50, anti-proliferative activity (inhibition of cell proliferation)
How it was run: (§1)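 Seeding density 2.5×10^3 cells/well; 72 h drug exposure at 37° C; endpoint CellTiter-Glo luminescence, reported as IC50.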

[2] = test system: BT474 (human breast carcinoma); experiment: In vitro tumor cell proliferation assay (Cell Titer-Glo luminescent cell viability), BT474; type: cell-based; settings: BT-474, 72 h, BT474 cells, 72 hours of drug exposure, ATP luminescence readout, read-out: IC50, anti-proliferative activity (inhibition of cell proliferation)
How it was run: as §1

IC50 [1] [µM] | IC50 [2] [µM] | SMILES
≤ 5 | ≤ 1 | OCCn1ncc2c1CCc1c-2sc2ncnc(Nc3ccc(OCc4cccc(F)c4)c(Cl)c3)c12 [Example 80, 2-[6-({3-chloro-4-[(3-fluorobenzyl)oxy]phenyl}amino)-4,5-dihydro-3H-pyrimido[5′,4′:4,5]thieno[2,3-e]indazol-3-yl]ethanol]
≤ 5 | ≤ 1 | CN1CCN(CCn2ncc3c2CCc2c-3sc3ncnc(Nc4ccc(OCc5cccc(F)c5)c(Cl)c4)c23)CC1 [Example 82, N-{3-chloro-4-[(3-fluorobenzyl)oxy]phenyl}-3-[2-(4-methylpiperazin-1-yl)ethyl]-4,5-dihydro-3H-pyrimido[5′,4′:4,5]thieno[2,3-e]indazol-6-amine]
≤ 5 | ≤ 1 | Fc1cccc(COc2ccc(Nc3ncnc4sc5c(c34)CCc3c-5cnn3CCn3ccnc3)cc2Cl)c1 [Example 83, N-{3-chloro-4-[(3-fluorobenzyl)oxy]phenyl}-3-[2-(1H-imidazol-1-yl)ethyl]-4,5-dihydro-3H-pyrimido[5′,4′:4,5]thieno[2,3-e]indazol-6-amine]
≤ 5 | ≤ 1 | COCCNCCn1ncc2c1CCc1c-2sc2ncnc(Nc3ccc(OCc4cccc(F)c4)c(Cl)c3)c12 [Example 84, N-{3-chloro-4-[(3-fluorobenzyl)oxy]phenyl}-3-{2-[(2-methoxyethyl)amino]ethyl}-4,5-dihydro-3H-pyrimido[5′,4′:4,5]thieno[2,3-e]indazol-6-amine]
≤ 5 | ≤ 1 | CS(=O)(=O)CCNCCn1ncc2c1CCc1c-2sc2ncnc(Nc3ccc(OCc4cccc(F)c4)c(Cl)c3)c12 [Example 85, N-{3-chloro-4-[(3-fluorobenzyl)oxy]phenyl}-3-(2-{[2-(methylsulfonyl)ethyl]amino}ethyl)-4,5-dihydro-3H-pyrimido[5′,4′:4,5]thieno[2,3-e]indazol-6-amine]
≤ 50 | ≤ 1 | Fc1cccc(COc2ccc(Nc3ncnc4sc5c(c34)CCc3c-5cnn3CCN3CCOCC3)cc2Cl)c1 [Example 86, N-{3-chloro-4-[(3-fluorobenzyl)oxy]phenyl}-3-(2-morpholin-4-ylethyl)-4,5-dihydro-3H-pyrimido[5′,4′:4,5]thieno[2,3-e]indazol-6-amine]
≤ 5 | ≤ 1 | Fc1cccc(COc2ccc(Nc3ncnc4sc5c(c34)CCc3c-5cnn3CCN3CCCC3)cc2Cl)c1 [Example 87, N-{3-chloro-4-[(3-fluorobenzyl)oxy]phenyl}-3-(2-pyrrolidin-1-ylethyl)-4,5-dihydro-3H-pyrimido[5′,4′:4,5]thieno[2,3-e]indazol-6-amine]
≤ 5 | ≤ 5 | OCCn1ncc2c1CCc1c-2sc2ncnc(Nc3ccc(F)c(Cl)c3)c12 [Example 88, 2-{6-[(3-chloro-4-fluorophenyl)amino]-4,5-dihydro-3H-pyrimido[5′,4′:4,5]thieno[2,3-e]indazol-3-yl}ethanol]
≤ 50 | ≤ 50 | CS(=O)(=O)OCCn1ncc2c1CCc1c-2sc2ncnc(Nc3ccc(F)c(Cl)c3)c12 [Example 89, 2-{6-[(3-chloro-4-fluorophenyl)amino]-4,5-dihydro-3H-pyrimido[5′,4′:4,5]thieno[2,3-e]indazol-3-yl}ethyl methanesulfonate]
≤ 5 | ≤ 5 | CN1CCN(CCn2ncc3c2CCc2c-3sc3ncnc(Nc4ccc(F)c(Cl)c4)c23)CC1 [Example 90, N-(3-chloro-4-fluorophenyl)-3-[2-(4-methylpiperazin-1-yl)ethyl]-4,5-dihydro-3H-pyrimido[5′,4′:4,5]thieno[2,3-e]indazol-6-amine trifluoroacetate]
≤ 5 | ≤ 5 | OCCN(CCO)CCn1ncc2c1CCc1c-2sc2ncnc(Nc3ccc(F)c(Cl)c3)c12 [Example 91, 2,2′-[(2-{6-[(3-chloro-4-fluorophenyl)amino]-4,5-dihydro-3H-pyrimido[5′,4′:4,5]thieno[2,3-e]indazol-3-yl}ethyl)imino]diethanol trifluoroacetate (salt)]
≤ 5 | ≤ 5 | CS(=O)(=O)CCNCCn1ncc2c1CCc1c-2sc2ncnc(Nc3ccc(F)c(Cl)c3)c12 [Example 92, N-(3-chloro-4-fluorophenyl)-3-(2-{[2-(methylsulfonyl)ethyl]amino}ethyl)-4,5-dihydro-3H-pyrimido[5′,4′:4,5]thieno[2,3-e]indazol-6-amine]
≤ 5 | ≤ 5 | Fc1ccc(Nc2ncnc3sc4c(c23)CCc2c-4cnn2CCNCCN2CCOCC2)cc1Cl [Example 93, N-(3-chloro-4-fluorophenyl)-3-{2-[(2-morpholin-4-ylethyl)amino]ethyl}-4,5-dihydro-3H-pyrimido[5′,4′:4,5]thieno[2,3-e]indazol-6-amine]
≤ 5 | ≤ 5 | Fc1ccc(Nc2ncnc3sc4c(c23)CCc2c-4cnn2CCN2CCNCC2)cc1Cl [Example 94, N-(3-chloro-4-fluorophenyl)-3-(2-piperazin-1-ylethyl)-4,5-dihydro-3H-pyrimido[5′,4′:4,5]thieno[2,3-e]indazol-6-amine]

Continued, molecule first:

SMILES | IC50 [1] [µM] | IC50 [2] [µM]
Fc1cccc(COc2ccc(Nc3ncnc4sc5c(c34)CCc3nn(CCNCCN4CCOCC4)cc3-5)cc2Cl)c1 [Example 68, N-{3-chloro-4-[(3-fluorobenzyl)oxy]phenyl}-2-{2-[(2-morpholin-4-ylethyl)amino]ethyl}-4,5-dihydro-2H-pyrimido[5′,4′:4,5]thieno[2,3-e]indazol-6-amine] | ≤ 5 | ≤ 1
COCCN(C)CCn1cc2c(n1)CCc1c-2sc2ncnc(Nc3ccc(OCc4cccc(F)c4)c(Cl)c3)c12 [Example 69, N-{3-chloro-4-[(3-fluorobenzyl)oxy]phenyl}-2-{2-[(2-methoxyethyl)(methyl)amino]ethyl}-4,5-dihydro-2H-pyrimido[5′,4′:4,5]thieno[2,3-e]indazol-6-amine] | ≤ 5 | ≤ 1
Fc1cccc(COc2ccc(Nc3ncnc4sc5c(c34)CCc3nn(CCN4CCC(N6CCCCC6)CC4)cc3-5)cc2Cl)c1 [Example 70, 2-[2-(1,4′-bipiperidin-1′-yl)ethyl]-N-{3-chloro-4-[(3-fluorobenzyl)oxy]phenyl}-4,5-dihydro-2H-pyrimido[5′,4′:4,5]thieno[2,3-e]indazol-6-amine] | ≤ 5 | ≤ 1
CNCCn1cc2c(n1)CCc1c-2sc2ncnc(Nc3ccc(OCc4cccc(F)c4)c(Cl)c3)c12 [Example 71, N-{3-chloro-4-[(3-fluorobenzyl)oxy]phenyl}-2-[2-(methylamino)ethyl]-4,5-dihydro-2H-pyrimido[5′,4′:4,5]thieno[2,3-e]indazol-6-amine] | ≤ 50 | ≤ 1
CC(C)(C)OC(=O)N1CCN(CCn2cc3c(n2)CCc2c-3sc3ncnc(Nc4ccc(OCc5cccc(F)c5)c(Cl)c4)c23)CC1 [Example 72, tert-butyl 4-{2-[6-({3-chloro-4-[(3-fluorobenzyl)oxy]phenyl}amino)-4,5-dihydro-2H-pyrimido[5′,4′:4,5]thieno[2,3-e]indazol-2-yl]ethyl}piperazine-1-carboxylate] | ≤ 50 | ≤ 50
CN(C)CCn1cc2c(n1)CCc1c-2sc2ncnc(Nc3ccc(OCc4cccc(F)c4)c(Cl)c3)c12 [Example 73, N-{3-chloro-4-[(3-fluorobenzyl)oxy]phenyl}-2-[2-(dimethylamino)ethyl]-4,5-dihydro-2H-pyrimido[5′,4′:4,5]thieno[2,3-e]indazol-6-amine] | ≤ 5 | ≤ 1
Fc1cccc(COc2ccc(Nc3ncnc4sc5c(c34)CCc3n[nH]cc3-5)cc2Cl)c1 [Example 74, N-{3-chloro-4-[(3-fluorobenzyl)oxy]phenyl}-4,5-dihydro-2H-pyrimido[5′,4′:4,5]thieno[2,3-e]indazol-6-amine] | ≤ 5 | ≤ 1
OC[C@@H](O)Cn1cc2c(n1)CCc1c-2sc2ncnc(Nc3ccc(OCc4cccc(F)c4)c(Cl)c3)c12 [Example 75, (S)-3-{6-[3-Chloro-4-(3-fluoro-benzyloxy)-phenylamino]-4,5-dihydro-10-thia-2,3,7,9-tetraaza-cyclopenta[a]fluoren-2-yl}-propane-1,2-diol] | ≤ 5 | ≤ 1
OC[C@H](O)Cn1cc2c(n1)CCc1c-2sc2ncnc(Nc3ccc(OCc4cccc(F)c4)c(Cl)c3)c12 [Example 76, (R)-3-{6-[3-Chloro-4-(3-fluoro-benzyloxy)-phenylamino]-4,5-dihydro-10-thia-2,3,7,9-tetraaza-cyclopenta[a]fluoren-2-yl}-propane-1,2-diol] | ≤ 5 | ≤ 1
Fc1cccc(COc2ccc(Nc3ncnc4sc5c(c34)CCc3nn(CCn4ccnc4)cc3-5)cc2Cl)c1 [Example 77, N-{3-chloro-4-[(3-fluorobenzyl)oxy]phenyl}-2-[2-(1H-imidazol-1-yl)ethyl]-4,5-dihydro-2H-pyrimido[5′,4′:4,5]thieno[2,3-e]indazol-6-amine] | ≤ 5 | ≤ 1
CS(=O)(=O)CCNCCn1cc2c(n1)CCc1c-2sc2ncnc(Nc3ccc(OCc4cccc(F)c4)c(Cl)c3)c12 [Example 78, N-{3-chloro-4-[(3-fluorobenzyl)oxy]phenyl}-2-(2-{[2-(methylsulfonyl)ethyl]amino}ethyl)-4,5-dihydro-2H-pyrimido[5′,4′:4,5]thieno[2,3-e]indazol-6-amine] | ≤ 5 | ≤ 1
Fc1cccc(COc2ccc(Nc3ncnc4sc5c(c34)CCc3nn(CCCl)cc3-5)cc2Cl)c1 [Example 79, 2-(2-chloroethyl)-N-{3-chloro-4-[(3-fluorobenzyl)oxy]phenyl}-4,5-dihydro-2H-pyrimido[5′,4′:4,5]thieno[2,3-e]indazol-6-amine] | ≤ 50 | ≤ 1
